Our source for the Ki values is paper PMC6589914 (Chembiochem, 2019).

Molecules are shown by their SMILES.

For test [1], the target named is T1, bFUCA1 (Bos taurus, UniProt Q2KIM0).
T1 sequence (Q2KIM0 23-468): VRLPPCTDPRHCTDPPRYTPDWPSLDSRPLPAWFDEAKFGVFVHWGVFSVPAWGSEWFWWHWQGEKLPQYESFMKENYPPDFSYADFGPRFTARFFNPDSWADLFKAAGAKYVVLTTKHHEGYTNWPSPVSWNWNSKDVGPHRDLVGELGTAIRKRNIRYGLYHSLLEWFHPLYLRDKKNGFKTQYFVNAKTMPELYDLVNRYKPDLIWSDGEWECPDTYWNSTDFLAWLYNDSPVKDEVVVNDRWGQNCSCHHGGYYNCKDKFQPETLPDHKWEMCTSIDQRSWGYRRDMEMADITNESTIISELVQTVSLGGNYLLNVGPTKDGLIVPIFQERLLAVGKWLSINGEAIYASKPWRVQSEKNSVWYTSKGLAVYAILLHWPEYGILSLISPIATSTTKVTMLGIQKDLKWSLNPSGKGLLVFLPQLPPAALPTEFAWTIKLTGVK
Nature of the test: enzyme inhibition assay with 4-nitrophenyl α-L-fucopyranoside. Type of test: biochemical.

For test [2], the target named is T2, BT2970 (Bacteroides thetaiotaomicron, UniProt Q8A3I4).
T2 sequence (Q8A3I4 30-484): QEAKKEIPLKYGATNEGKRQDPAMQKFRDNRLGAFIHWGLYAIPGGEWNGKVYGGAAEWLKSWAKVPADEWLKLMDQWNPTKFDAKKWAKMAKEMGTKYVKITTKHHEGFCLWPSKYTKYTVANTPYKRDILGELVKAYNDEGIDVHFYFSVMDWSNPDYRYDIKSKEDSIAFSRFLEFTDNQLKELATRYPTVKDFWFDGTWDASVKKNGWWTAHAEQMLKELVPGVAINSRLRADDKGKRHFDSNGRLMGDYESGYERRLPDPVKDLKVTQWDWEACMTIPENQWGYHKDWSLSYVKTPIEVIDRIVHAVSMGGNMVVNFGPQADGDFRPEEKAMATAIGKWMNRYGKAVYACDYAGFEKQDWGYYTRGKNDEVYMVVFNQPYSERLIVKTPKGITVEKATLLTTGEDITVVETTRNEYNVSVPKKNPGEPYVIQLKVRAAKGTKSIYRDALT
Nature of the test: enzyme inhibition. The class given is biochemical.

For orientation: Ki means the dissociation constant of the complex between target and ligand, obtained from inhibition or displacement. Lower therefore signals tighter binding. In turn, `C[C@@H]1OC(=NOC(=O)NC2CC2)[C@@H](O)[C@H](O)[C@@H]1O` [compound 35, 35] displayed a Ki in test [1] of 184 ± 6 µM.
In test [1], `C[C@@H]1OC(=NOC(=O)NC(C)(C)C)[C@@H](O)[C@H](O)[C@@H]1O` [compound 34, 34] registered an inhibition constant Ki of 440 ± 9 µM.
Still for that read-out and setting: under `CCCCCCCCCCc1ccc(NC(=O)ON=C2O[C@@H](C)[C@@H](O)[C@@H](O)[C@@H]2O)cc1` [compound 43, 43] stands 4.8 ± 0.5 µM.
`CC(C)NC(=O)ON=C1O[C@@H](C)[C@@H](O)[C@@H](O)[C@@H]1O` [compound 33, 33] yielded an inhibitory constant (Ki) in test [1] of 320 ± 12 µM.
For `C[C@@H]1O/C(=N\OC(=O)Nc2ccccc2)[C@@H](O)[C@H](O)[C@@H]1O` [compound 39, 39], the Ki was found to be 121 ± 24 µM in test [2] and 11 ± 1 µM in test [1].
In test [1], `COc1ccc(NC(=O)ON=C2O[C@@H](C)[C@@H](O)[C@@H](O)[C@@H]2O)cc1` [compound 41, 41] had a Ki of 9.5 ± 0.9 µM.
Same read-out and setting: the figure for `C=CCNC(=O)ON=C1O[C@@H](C)[C@@H](O)[C@@H](O)[C@@H]1O` [compound 30, 30] is 175 ± 6 µM.
With `C[C@@H]1OC(=NOC(=O)Nc2ccc(Br)cc2)[C@@H](O)[C@H](O)[C@@H]1O` [compound 40, 40], in test [1], the Ki worked out at 85 ± 4 µM.
Same read-out and setting: under `CCCCCCNC(=O)ON=C1O[C@@H](C)[C@@H](O)[C@@H](O)[C@@H]1O` [compound 32, 32] stands 143 ± 8 µM; under `C[C@@H]1OC(=NO)[C@@H](O)[C@H](O)[C@@H]1O` [compound 12, 1,5-hydroximolactone 12], 323 ± 12 µM.
Turning to `C[C@@H]1OC(=NOC(=O)NC2CCCC2)[C@@H](O)[C@H](O)[C@@H]1O` [compound 37, 37], affinity in test [1] was put at a Ki of 325 ± 8 µM.
Still for that read-out and setting: under `CCCNC(=O)ON=C1O[C@@H](C)[C@@H](O)[C@@H](O)[C@@H]1O` [compound 29, 29] stands 190 ± 11 µM; under `CCCCNC(=O)ON=C1O[C@@H](C)[C@@H](O)[C@@H](O)[C@@H]1O` [compound 31, 31], 172 ± 7 µM; under `C[C@@H]1OC(=NOC(=O)NC2CCC2)[C@@H](O)[C@H](O)[C@@H]1O` [compound 36, 36], 220 ± 12 µM.
Regarding `CCCCc1ccc(NC(=O)ON=C2O[C@@H](C)[C@@H](O)[C@@H](O)[C@@H]2O)cc1` [compound 42, 42], the affinity in test [1] corresponds to a Ki of 7.5 ± 0.4 µM.
